Measurements published in PMC7363885, “Fluorescent artificial receptor-based membrane assay (FARMA) for spatiotemporally resolved monitoring of biomembrane permeability” (Communications Biology, 2020).

Key:
[1] = FARMA: permeation of analytes into FAR-loaded liposomes (fluorescence, cuvette or stopped-flow); conditions: for membrane permeability (in words): FARMA with FAR-loaded liposomes or GUVs
Description: Elementary physical parameters, such as permeability coefficients, can be extracted from the full kinetic FARMA data. This kinetic profile → parameter mapping requires some assumptions to be made in regard to the permeation mechanism. We applied a reported permeation model for liposomes[31] to arrive at permeation rate constants (kp) and apparent permeability coefficients (Papp). The derivation of the mathematical relation (1), linking the fundamental permeability rate constant and permeability coefficient to experimental measurable kobs rate constants, the known total analyte and total FAR concentration, and the experimentally determined liposome radius (r), is shown in the Supplementary Information.1 Papp=kp⋅r/3=kobs/canalyte⋅cFAR⋅r/3 […]
The volume-to-surface correction factor r/3 accounts for the fact that the observed rates depend on the size, i.e., radius r, of the liposomal assembly. […] The initial-rate method can also be applied, see the Supplementary Information. Moreover, kobs/canalyte can be estimated by single-point measurements at selected canalyte concentration.
A solution of 2.5 mg/mL of POPC and 0.33 mg/mL of POPS in chloroform was purged with nitrogen and dried overnight under […] vacuum. […] The resulting FAR-loaded liposomes were separated from non-encapsulated species by size-exclusion chromatography (NAP-25 column), while maintaining the same buffer. The absence of non-encapsulated FAR was confirmed by adding a non-membrane-permeable species such as tryptophan to a fluorescence cuvette containing 25 µL of liposomes diluted in 1 mL HEPES (10 mM) buffer. Complete removal of non-encapsulated FAR is indicated by the absence of a significant fluorescence change upon Trp addition.
In a typical experiment, 20 µL of liposome solution loaded with FAR was diluted in 1 mL HEPES buffer (10 mM, pH 7.0) in a 1 mL quartz cuvette. An emission spectrum was recorded after 10 min of “equilibration time” on a Varian Eclipse spectrofluorometer thermostated at 22 °C with a water bath using λexc = 400 nm for FAR-1, λexc = 310 nm for FAR-2, and λexc = 330 nm for FAR-3. In the time-resolved experiments, the emission intensity at λobs = 450 nm for FAR-1, λobs = 370 nm for FAR-2, and λobs = 370 and 500 nm for FAR-3 (the latter is the emerging excimer band for certain FAR-3•analyte complexes) was recorded with an averaging time of 0.5 s. […] For single-point experiments, a full spectrum was recorded after a fixed time or several time intervals after analyte addition. […] Only FAR-analyte combinations were used for FARMA, for which no significant autofluorescence and competitive light absorption of the analyte occurred.
For each experiment, measurements from 6 injections were accumulated and the average of these traces was used for data analysis.
Calculation of the unimolecular permeation rate constants ( kp) and of the apparent permeability coefficients (Papp).
The passive diffusion (permeation) of small non-charged compounds follows a modified Fick’s law and can be expressed by a first order kinetics.1 Similar to first order chemical reactions, the kinetics curve can therefore be fitted monoexponentially to obtained the observed permeation rates (kobs). In our assay set-up, such an exponential fit is an approximation, since it neglects that a certain fraction of transported analyte is bound to the FAR and cannot exit the liposome. Nevertheless, the fit of the kinetic curves of the […]
approximation is justified.

FAR-1 = assay: Fluorescence titration, FAR•analyte complex formation in homogeneous solution; type: binding
Method: Fluorescence titrations were carried out in aqueous HEPES buffer (10 mM, pH 7, 22 °C) unless stated otherwise. To a solution of the FAR (typically at 10–30 μM) was stepwise added a solution of the analyte (typically up to 2 mM) and the fluorescence spectra were recorded. The normalized emissions at 450 nm (FAR-1) or at 370 nm (FAR-2) were fitted with an equation for a 1 : 1 binding by a least-square fit. The resulting affinity constants are reported in Supplementary Table 1. Representative titration plots are shown in Supplementary Fig. 1. Note that the high CB8-dye binding affinities correspond to a near quantitative degree of host-dye complexation, i.e., quantitative formation of the FAR, such that the subsequent binding of the analyte can be treated independently.

[2] = FAR-1, 10 mM HEPES buffer (pH 7), 1:1 binding model, error estimate ≤ 20%
[3] = monoexponential fit, analyte 40 µM (bulk), FAR-2 ca. 500 µM in the liposome interior, 20% error

Compound | Ka (FAR-1; [2]) | kobs [1, 3] [s–1] | kobs ([1]; source data of Fig. 5) | log(kobs) ([1]; source data of Fig. 5) | further results
Oc1ccccc1O [1,2-dihydroxybenzene] | 20 10^3 M−1 | – | – | – | membrane permeability (in words) [1]: “instantaneously” permeating
O=C1C=CC(=O)C=C1 [1,4-benzoquinone] | 0.5 10^3 M−1 | – | – | – | –
O=P(O)(O)Oc1ccc2ccccc2c1 [2-naphthyl phosphate] | – | – | – | – | membrane permeability (in words) [1]: membrane-impermeable
Cc1ccccc1O [2Me-phenol, 2-methylphenol] | – | 0.33 | 0.33 | -0.4815 | –
O=C(O)C(=O)Cc1ccc(O)cc1 [4-hydroxyphenylpyruvic acid] | 17 10^3 M−1 | – | – | – | –
Nc1ccc(Br)cc1 [4Br-aniline, 4-bromoaniline] | – | 4.0 | 4 | 0.6021 | –
N#Cc1ccc(N)cc1 [4CN-aniline, 4-cyanoaniline] | – | 6.5 | 6.5 | 0.8129 | –
Nc1ccc(Cl)cc1 [4Cl-aniline, 4-chloroaniline] | – | 4.0 | 4 | 0.6021 | –
Oc1ccc(Cl)cc1 [4Cl-phenol, 4-chlorophenol] | – | 2.2 | 2.2 | 0.3424 | –
CCc1ccc(O)cc1 [4Et-phenol, 4-ethylphenol] | 1.2 10^3 M−1 | 0.24 | 0.24 | -0.6198 | –
Nc1ccc(F)cc1 [4F-aniline] | – | 4.4 | 4.4 | 0.6434 | –
Oc1ccc(F)cc1 [4F-phenol] | – | 2.8 | 2.8 | 0.4472 | –
Nc1ccc(I)cc1 [4I-aniline] | – | 3.1 | 3.1 | 0.4914 | –
Oc1ccc(I)cc1 [4I-phenol, 4-iodophenol] | – | 0.69 | 0.69 | -0.1611 | –
O=[N+]([O-])c1ccc(O)cc1 [4NO2-phenol] | – | 38 | 38 | 1.58 | –
N[C@@H](Cc1c[nH]c2ccc(O)cc12)C(=O)O [5HO-Trp, 5-hydroxy tryptophan] | 7.7 10^3 M−1 | – | – | – | –
CN(C)c1ccc(C#N)cc1 [DMABN, 4-(N,N-dimethylamino) benzonitrile] | – | 0.68 | 0.68 | -0.1675 | –
O=C1CCC(=O)N1c1ccccc1 [N-phenylsuccinimide] | 30 10^3 M−1 | 1.1 | 1.1 | 0.04139 | –
CC(=O)NC(Cc1c[nH]c2ccccc12)C(=O)O (centres unmarked) [NAc-Trp] | 50 10^3 M−1 | – | – | – | –

Compound | Ka (FAR-1; [2]) | kobs [1, 3] [s–1] | kobs ([1]; source data of Fig. 5) | log(kobs) ([1]; source data of Fig. 5) | further results
COC(=O)[C@@H](N)Cc1c[nH]c2ccccc12 [TrpOMe, tryptophan methyl ester] | 14 10^3 M−1 | – | – | – | membrane permeability (in words) [1]: rather quickly permeating
CNC[C@H](O)c1ccc(O)c(O)c1 [adrenaline] | < 1 10^3 M−1 | – | – | – | membrane permeability (in words) [1]: very slowly permeating
c1ccccc1 [benzene] | 4 10^3 M−1 | – | – | – | –
c1ccc2[nH]cnc2c1 [benzimidazole] | 7.5 10^3 M−1 | 2.7 | 2.7 | 0.4314 | –
CC(C)(O/N=C(\C(=O)N[C@@H]1C(=O)N2C(C(=O)[O-])=C(C[n+]3ccccc3)CS[C@H]12)c1csc(N)n1)C(=O)O [ceftazidime, reference compound] | < 1 10^3 M−1 | – | – | – | –
O=C(N[C@H](CO)[C@H](O)c1ccc([N+](=O)[O-])cc1)C(Cl)Cl [chloramphenicol, reference compound] | < 1 10^3 M−1 | – | – | – | –
NCCc1ccc(O)c(O)c1 [dopamine] | 0.10 10^3 M−1 | – | – | – | membrane permeability (in words) [1]: very slowly permeating
O=C(O)Cc1cc(O)ccc1O [homogentisic acid] | – | – | – | – | Ka (FAR-1; pH 7): 0.14
c1ccc2[nH]ncc2c1 [indazole] | – | 2.4 | 2.4 | 0.3802 | –
c1ccc2ccccc2c1 [naphthalene] | > 50 10^3 M−1 | – | – | – | membrane permeability (in words) [1]: permeating
COc1ccc2cc([C@H](C)C(=O)O)ccc2c1 [naproxen, reference compound] | 2 10^3 M−1 | – | – | – | –
CC(=O)Nc1ccc(O)cc1 [paracetamol, reference compound] | 7 10^3 M−1 | – | – | – | –
Nc1c(F)c(F)c(F)c(F)c1F [pentafluoroaniline] | – | 0.51 | 0.51 | -0.2924 | –
NCCc1ccccc1 [phenethylamine] | 8 10^3 M−1 | 0.22 | 0.22 | -0.6576 | –
OC[C@H]1O[C@@H](Oc2ccccc2)[C@H](O)[C@@H](O)[C@H]1O [phenyl-β-D-galactopyranoside] | 30 10^3 M−1 | – | – | – | membrane permeability (in words) [1]: slowly permeating; time of FARMA signal response (t) ([1]; slow response, without enzyme): > 5 min
CCCN(CCOc1c(Cl)cc(Cl)cc1Cl)C(=O)n1ccnc1 [prochloraz] | 2.8 10^3 M−1 | – | – | – | –
CCC(=O)Nc1ccc(Cl)c(Cl)c1 [propanil] | 8 10^3 M−1 | 42 | 42 | 1.623 | –
c1ccc2ncccc2c1 [quinoline] | 2.2 10^3 M−1 | – | – | – | –
C=C(C)[C@H]1Cc2c(ccc3c2O[C@@H]2COc4cc(OC)c(OC)cc4[C@@H]2C3=O)O1 [rotenone] | 4.8 10^3 M−1 | – | – | – | –
